From patent US20090123488A1, “Compositions and methods for the treatment and prophylaxis of Alzheimer's disease” (priority 2006, published 2009)

Key:
[1] = tested on: Aβ40; conditions: immunized mice (Agadjanyan et al 2005); cited from earlier work
[2] = tested on: amyloid-β; conditions: mice, alum adjuvant, five boosts (Agadjanyan et al 2005); cited from earlier work
[3] = tested on: synthetic Aβ40; assay: Effect of booster doses: mouse serums titered on synthetic Aβ40; assay type: in vivo; conditions: three mice
Experimental: After immunizations with the immunogens of Example 1, serums were assayed to determine anti-Aβ peptide titers by conventional ELISA methods. […] After thorough washing with 0.1% triton X 100 buffer, blocking with 1% bovine serum albumin (BSA) and rewashing, serum dilutions were applied and incubated at 22° C. for 1 hour. After incubation, the plates were thoroughly washed with triton-X 100 buffer again and 1/10,000 goat anti-mouse IgG-horseradish peroxidase (HRP) conjugate (or the appropriate reagent for rat or rabbit) was applied. The plates were then incubated for 1 hour at 22° C. then washed thoroughly and developed with ABTS for 45 minutes at room temperature on a shaker table. Absorbance was measured at 405 nm. Control wells containing 1/60000 normal mouse serum were measured; and the reciprocal of the […] dilution of test serums with an OD greater than the mean+8 SDs of controls was taken as the titer.
In an experiment to determine the effect of booster dosages, three mice were immunized with experimental immunogen, Pam2C-SSQYIKANSKFIGITELDAEFRHDSGYEVHHQ-amide (SEQ ID NO: 13) in a protocol of a 1 mg intraperitoneal (IP) priming dose at Day 0, followed by a 1 mg IP booster at Week 3, and a 1 mg IP second booster at Week 6. Mice were bled at weeks 5 and 8. The serums are titered on synthetic Aβ40. […]

Aβ40, sequence (P05067 672-711): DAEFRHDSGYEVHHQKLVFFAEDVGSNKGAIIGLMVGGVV

| Substance | T cell response to Aβ40 [1] | maximal titer [2] | GMT at 5 weeks ([3]; 1 mg IP Day 0, boosters Week 3 and Week 6, bled week 5) [million] | GMT at 8 weeks ([3]; 1 mg IP Day 0, boosters Week 3 and Week 6, bled week 8) [million] |
| --- | --- | --- | --- | --- |
| Aβ33-MAP: Aβ33 synthesized as a multiple antigenic peptide (Agadjanyan et al 2005) | demonstrable T cell response | 64,000 |  |  |
| Pam2C-SSQYIKANSKFIGITELDAEFRHDSGYEVHHQ-amide [Pam2-QYIK-AB1-15] |  |  | 3 | 8 |
